This is an account of results in patent US20260356851A1, “TRICYCLIC COMPOUNDS AND USES THEREOF” (HUTCHMED LIMITED, priority 2023, published 2026).

Common to all, as to format: cell-based
Test [1] has as its target T1, pERK1/2 (Thr202/Tyr204), NCI-1H358 (KRAS G12C) (Homo sapiens, UniProt P01116, G12C).
T1 construct: pERK1/2 HTRF read-out
Description: Assay of intracellular pERK1/2 (Thr202/Tyr204) phosphorylation in NCI-H358 cells (KRAS G12C). Conditions: pERK1/2, 2 days, read-out: NCI-H358 (KRAS G12C) IC50. The method, then:
(§1) Example 2: Assay of intracellular pERK1/2 (Thr202/Tyr204)phosphorylation
(§2) 1. Reagents and materials: • pERK1/2 (Thr202/Tyr2O4) HIRE kit, Cisbio, Cat #64ERKPEH; • OptiPlate™-384-well plate, PerkinElmer, Cat #6007299; • 96-well plate, Coming, Cat #353072; • Instrument: EnVision2104, PerkinElmer; • Cell lines: NCI-1H358 (KRAS G12C), ATCC, CRL-5807; PANC-1 (KRAS G121D), ATCC, CRL-1469; NCI-1H441 (KRAS G12V), ATCC, HTB-174.
(§3) 2. Preparation of Reaction Solutions
(§4) • A test compound was dissolved in DMSO, diluted to 200.0 μM and further diluted 3-fold to prepare a series of test compounds at concentrations of 66.7, 22.2, 7.4, 2.5, 0.82, 0.27, 0.09 μM etc. Then 10 μL of the compound at different dilution concentrations was added to 190 μL of a DMEM medium to prepare a 10× test compound; • 1× cell lysis buffer: 4× cell lysis stock solution (provided by the kit) was diluted 4-fold with deionized water, and then 10% 100× blocking stock solution (provided by the kit) was added thereto. • pERK1/2 detection solution (prepared just before use): the pERK1/2 d2 antibody (provided by the kit) and pERK1/2 Cryptate antibody (provided by the kit) were diluted with the detection solution (provided by the kit) at a ratio of 1:1:38.
(§5) • Cells were inoculated into a 96-well plate (100 μL/well) at a density of 10000-12000/well. No cell was inoculated into a negative control well, and only the cell medium was added at 100 μL/well. The plate was placed in a cell incubator at 5% CO2 and 37° C. overnight. • 10 μL of the 10× test compound was added to the 100 μL cell culture 96-well plate; both the positive control well (that is, the control hole without chemical compound treatment) and the negative control well were charged with 10 μL of a 5% DMSO culture solution; and the plate was cultured in a cell incubator at 5% CO2 and 37° C. for 2 days. • The medium in the 96-well plate was removed; 50 μL of the 1× cell lysis buffer was added to each of the wells; the plate was placed in a microplate shaker; and lysis under shaking was carried out at 900 rpm at room temperature for 1 hour. • 16 μL of the lysis buffer in the 96-well plate was taken and transferred to a 384-well plate, followed by centrifugation at 1000 rpm for 30 s; then 4 μL of pERK1/2 detection solution was added to each well, followed by centrifugation at 1000 rpm for 30 s; and the 384-well plate was sealed with a sealing membrane and incubated at 25° C. on a low-speed shaker at 100 rpm in the dark for 2 hours. • The fluorescence value (RFU) of each well was detected on EnVision2104, with an emission wavelength 1 being 665 nm and an emission wavelength 2 being 615 nm.
(§6) Fluorescence ratio=fluorescence value665 nm/fluorescence value615 nm
(§7) Inhibition rate (%)=100−((fluorescence ratio of compound well−fluorescence ratio of negative control well)/(fluorescence ratio of positive control well−fluorescence ratio of negative control well))×100
(§8) wherein: • the fluorescence ratio of compound well refers to the fluorescence ratio of the well containing the test compounds; • the fluorescence ratio of negative control well refers to the fluorescence ratio of the cell-free control well; • the fluorescence ratio of positive control well refers to the fluorescence ratio of the cell well treated with 0.5% DMSO.
(§9) IC50 value: obtained by calculation using XL-Fit 5.0 software.

For test [2], the target named is T2, pERK1/2 (Thr202/Tyr204), PANC-1 (KRAS G121D) (Homo sapiens, UniProt P01116, G12D).
T2 construct: pERK1/2 HTRF read-out
As to the kind of experiment: Assay of intracellular pERK1/2 (Thr202/Tyr204) phosphorylation in PANC-1 cells (KRAS G12D). The conditions noted are these: pERK1/2, 2 days, read-out: PANC-1 (KRAS G12D) IC50. The method, then: as §1, §2, §3, §4, §5, §6, §7, §8, §9

In test [3] the target is T3, pERK1/2 (Thr202/Tyr204), NCI-1H441 (KRAS G12V) (Homo sapiens, UniProt P01116, G12V).
T3 construct: pERK1/2 HTRF read-out
Description: Assay of intracellular pERK1/2 (Thr202/Tyr204) phosphorylation in NCI-H441 cells (KRAS G12V). The conditions noted are these: pERK1/2, 2 days, read-out: NCI-H441 (KRAS G12V) IC50. The method, then:
as §1, §2, §3, §4, §5, §6, §7, §8, §9

SMILES strings stand for the structures. A value given as a limit tells only on which side of the number the result lay.

T1 sequence (P01116 1-188 isoform P01116-2 G12C): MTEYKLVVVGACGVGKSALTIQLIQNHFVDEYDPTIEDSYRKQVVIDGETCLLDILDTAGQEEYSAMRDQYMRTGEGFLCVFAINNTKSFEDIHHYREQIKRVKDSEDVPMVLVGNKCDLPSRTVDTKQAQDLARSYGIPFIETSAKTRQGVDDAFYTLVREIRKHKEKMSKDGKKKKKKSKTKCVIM
T2 sequence (P01116 1-188 isoform P01116-2 G12D): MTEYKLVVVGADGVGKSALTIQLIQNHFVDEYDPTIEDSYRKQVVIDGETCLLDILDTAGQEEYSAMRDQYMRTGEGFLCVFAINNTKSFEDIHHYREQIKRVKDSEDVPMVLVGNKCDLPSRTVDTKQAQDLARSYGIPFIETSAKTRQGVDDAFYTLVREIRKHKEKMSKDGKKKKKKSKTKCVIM
T3 sequence (P01116 1-188 isoform P01116-2 G12V): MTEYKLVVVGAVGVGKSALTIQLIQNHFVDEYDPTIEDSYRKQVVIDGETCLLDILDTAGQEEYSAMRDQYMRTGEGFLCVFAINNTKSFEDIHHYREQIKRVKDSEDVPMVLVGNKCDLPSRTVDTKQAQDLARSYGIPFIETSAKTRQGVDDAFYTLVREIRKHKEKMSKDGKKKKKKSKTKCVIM

In the case of `CC(c1cccnc1N)N1CCOc2nc(-c3cc(O)cc(F)c3C3CC3)c(F)c3nc(OC[C@@H]4CCCN4C)nc1c23` (single isomer, unassigned) [Compound 34, 3-(10-((R or S)-1-(2-aminopyridin-3-yl)ethyl)-4-fluoro-2-(((S)-1-methylpyrrolidin-2-yl)methoxy)-9,10-dihydro-8H-7-oxa-1,3,6,10-tetraazacyclohepta[de]naphthalen-5-yl)-4-cyclopropyl-5-fluorophenol], the IC50 in test [1], in test [2] and in test [3] was more than 1000 nM throughout.
On to `CC(c1cccnc1N)N1CCOc2nc(-c3cc(O)cc(F)c3C3CC3)c(F)c3nc(OC[C@@H]4CCCN4C)nc1c23` (single isomer, unassigned) [Compound 35, 3-(10-((R or S)-1-(2-aminopyridin-3-yl)ethyl)-4-fluoro-2-(((S)-1-methylpyrrolidin-2-yl)methoxy)-9,10-dihydro-8H-7-oxa-1,3,6,10-tetraazacyclohepta[de]naphthalen-5-yl)-4-cyclopropyl-5-fluorophenol], for which the results for the IC50 in test [1], in test [2] and in test [3] were 18 nM, 399 nM and 37 nM, respectively.
Taken in the same sequence, the figures for `C[C@H](c1cccnc1N)N1CCOc2nc(-c3c(C(F)(F)F)ccc4[nH]ncc34)c(F)c3nc(OC[C@@H]4CCN4CC(F)F)nc1c23` (single isomer, unassigned) [Compound 38, 3-((1R or 1S)-1-(2-(((S)-1-(2,2-difluoroethyl)azetidin-2-yl)methoxy)-4-fluoro-5-(5-(trifluoromethyl)-1H-indazol-4-yl)-8,9-dihydro-10H-7-oxa-1,3,6,10-tetraazacyclohepta[de]naphthalen-10-yl)ethyl)pyridin-2-amine] were 595 nM, more than 1000 nM and 643 nM.
For the molecule `C[C@@H](c1cccnc1N)N1CCOc2nc(-c3c(C(F)(F)F)ccc4[nH]ncc34)c(F)c3nc(OC[C@@H]4CCN4CC(F)F)nc1c23` (single isomer, unassigned) [Compound 39, 3-((1R or 1S)-1-(2-(((S)-1-(2,2-difluoroethyl)azetidin-2-yl)methoxy)-4-fluoro-5-(5-(trifluoromethyl)-1H-indazol-4-yl)-8,9-dihydro-10H-7-oxa-1,3,6,10-tetraazacyclohepta[de]naphthalen-10-yl)ethyl)pyridin-2-amine], the figures for the IC50 in test [1], in test [2] and in test [3] were 2 nM, 237 nM and 7 nM, respectively.
In the same order, the values of `CC(c1cccnc1N)N1CCOc2nc(-c3cc(O)cc4ccc(F)c(F)c34)c(F)c3nc(OC[C@@H]4CCCN4C)nc1c23` (single isomer, unassigned) [Compound 41, 4-(10-((R or S)-1-(2-aminopyridin-3-yl)ethyl)-4-fluoro-2-(((S)-1-methylpyrrolidin-2-yl)methoxy)-9,10-dihydro-8H-7-oxa-1,3,6,10-tetraazacyclohepta[de]naphthalen-5-yl)-5,6-difluoronaphthalen-2-ol] are 223 nM, more than 1000 nM and 820 nM.
Taken in the same sequence, the figures for `CC(c1cccnc1N)N1CCOc2nc(-c3cc(O)cc4ccc(F)c(F)c34)c(F)c3nc(OC[C@@H]4CCCN4C)nc1c23` (single isomer, unassigned) [Compound 42, 4-(10-((R or S)-1-(2-aminopyridin-3-yl)ethyl)-4-fluoro-2-(((S)-1-methylpyrrolidin-2-yl)methoxy)-9,10-dihydro-8H-7-oxa-1,3,6,10-tetraazacyclohepta[de]naphthalen-5-yl)-5,6-difluoronaphthalen-2-ol] were 0.9 nM, 69 nM and 5 nM.
Consider `CC(c1cccnc1N)N1CCOc2nc(-c3cc(O)cc(Cl)c3C3CC3)c(F)c3nc(OC[C@@]45CCCN4C[C@H](F)C5)nc1c23` (single isomer, unassigned) [Compound 43, 3-(10-((R or S)-1-(2-aminopyridin-3-yl)ethyl)-4-fluoro-2-(((2R,7aS)-2-fluorotetrahydro-1H-pyrrolizin-7a(5H)-yl)methoxy)-9,10-dihydro-8H-7-oxa-1,3,6,10-tetraazacyclohepta[de]naphthalen-5-yl)-5-chloro-4-cyclopropylphenol], for which the IC50 in test [1], in test [2] and in test [3] was more than 1000 nM throughout.
On to `CC(c1cccnc1N)N1CCOc2nc(-c3cc(O)cc(Cl)c3C3CC3)c(F)c3nc(OC[C@@]45CCCN4C[C@H](F)C5)nc1c23` (single isomer, unassigned) [Compound 44, 3-(10-((R or S)-1-(2-aminopyridin-3-yl)ethyl)-4-fluoro-2-(((2R,7aS)-2-fluorotetrahydro-1H-pyrrolizin-7a(5H)-yl)methoxy)-9,10-dihydro-8H-7-oxa-1,3,6,10-tetraazacyclohepta[de]naphthalen-5-yl)-5-chloro-4-cyclopropylphenol], for which the results for the IC50 in test [1], in test [2] and in test [3] were 0.1 nM, 3 nM and 0.6 nM, respectively.
In the same order, the values of `CC(c1cccnc1N)N1CCOc2nc(-c3cc(O)cc(F)c3C3CC3)c(F)c3nc(OC[C@@H]4CC(F)(F)CN4C)nc1c23` (single isomer, unassigned) [Compound 48, 3-(10-((R or S)-1-(2-aminopyridin-3-yl)ethyl)-2-(((S)-4,4-difluoro-1-methylpyrrolidin-2-yl)methoxy)-4-fluoro-9,10-dihydro-8H-7-oxa-1,3,6,10-tetraazacyclohepta[de]naphthalen-5-yl)-4-cyclopropyl-5-fluorophenol] are more than 1000 nM, more than 1000 nM and more than 1000 nM.
As to `CC(c1cccnc1N)N1CCOc2nc(-c3cc(O)cc(F)c3C3CC3)c(F)c3nc(OC[C@@H]4CC(F)(F)CN4C)nc1c23` (single isomer, unassigned) [Compound 49, 3-(10-((R or S)-1-(2-aminopyridin-3-yl)ethyl)-2-(((S)-4,4-difluoro-1-methylpyrrolidin-2-yl)methoxy)-4-fluoro-9,10-dihydro-8H-7-oxa-1,3,6,10-tetraacyclohepta[de]naphthalen-5-yl)-4-cyclopropyl-5-fluorophenol], the half-inhibitory concentration (IC50) is 15 nM in test [1], 557 nM in test [2] and 22 nM in test [3].
In the same order, the values of `CC(c1cccnc1N)N1CCOc2nc(-c3cc(O)cc4ccc(F)c(F)c34)c(F)c3nc(OC[C@@H]4CC(F)(F)CN4C)nc1c23` (single isomer, unassigned) [Compound 50, 4-(10-((R or S)-1-(2-aminopyridin-3-yl)ethyl)-2-(((S)-4,4-difluoro-1-methylpyrrolidin-2-yl)methoxy)-4-fluoro-9,10-dihydro-8H-7-oxa-1,3,6,10-tetraazacyclohepta[de]naphthalen-5-yl)-5,6-difluoronaphthalen-2-ol] are 916 nM, more than 1000 nM and more than 1000 nM.

Usually IC50 stands for the midpoint of a concentration-inhibition curve.
